# Reference: paper PMC7559231, “Drug-induced cholestasis assay in primary hepatocytes” (MethodsX, 2020)
# Where two headings read alike, the source gives them in different places.
# How the values were obtained:
# [1] = system: sandwich-cultured human hepatocytes; settings: SCHH, ref [6],[7], cited from earlier work; for DICI 24 h Mean: 24 h exposure; for DICI 48 h Mean: 48 h exposure
# [2] = set-up: method as in per compound in column References of Table 3 ([3], [24]-[44]); settings: mean total peak plasma concentration in humans; ref per compound in Table 3 ([3], [24]-[44]); cited from earlier work
# [3] = system: sandwich-cultured human hepatocytes; test: Drug-induced cholestasis (DIC) assay: urea formation in sandwich-cultured human hepatocytes with and without the bile salt mixture; settings: lowest in vitro concentration with DICI < 0.78 / Cmax,total; for DICI-based SM obtained with the ‘original’ LOAEL method 24 h: 24 h incubation; for DICI-based SM obtained with the ‘original’ LOAEL method 48 h: 48 h incubation
# Source text: Drug-induced cholestasis (DIC) is a major cause of attrition during drug development and post-marketing withdrawal. Early detection of DIC is crucial for avoiding financial losses and improving drug safety. Preclinical assays for DIC detection often rely on evaluation of the test compound towards individual cellular targets such as their inhibitory potential towards the bile salt export pump (BSEP) by using BSEP membrane vesicles. However, the underlying mechanisms of DIC development are more complex involving multiple other transporters and nuclear receptors. A more comprehensive in vitro model such as sandwich-cultured human hepatocytes (SCHH) are more suited due to the presence of metabolizing enzymes and transporters relevant to bile salt disposition. The assay described here relies on changes in the ability of SCHH to produce urea from ammonia in the absence and presence of a (patho-)physiologically relevant bile salt mixture. Ammonia is detoxified in the hepatocyte by the urea cycle to form non-toxic urea. Measuring changes in urea production allows for the quantitative evaluation of the hepatocyte's biochemical and functional integrity. The colorimetric quantitation of urea formation is based on the reaction between urea and diacetylmonoxime.
# By determining the ratio of urea formation after incubation with test compound in absence and in presence of the bile salt mixture, the DIC index (DICI) value can be calculated. […] It was previously established that a compound with a SM below 30 can be considered to display increased risk for causing cholestasis in the clinic.
# If longer incubations are required (e.g. 48 h), the medium is changed again after 24 h (day 6) with fresh medium containing the same initial concentrations of test compound and bile salts as 24 h before.
# • Solution 1: culture medium with no compound and 0.2% DMSO. […] This solution should be filtered through a 0.2 µm filter and prewarmed for 30 min at 37°C. • Solution 4: culture medium with double concentrated test compound. […] This solution should be filtered through a 0.2 µm filter and prewarmed for 30 min at 37°C. • Solution 5: control medium with bile salts, prepared by mixing solution 1 and solution 2 in a 1:1 ratio. • Solution 6: culture medium with positive control without bile salts, prepared by mixing solution 1 and solution 3 in a 1:1 ratio. • Solution 7: culture medium with positive control with bile salts, prepared by mixing solution 2 and solution 3 in a 1:1 ratio. • Solution 8: culture medium with test compound without bile salts, prepared by mixing solution 1 and solution 4 in a 1:1 ratio. • Solution 9: culture medium with test compound with bile salts, prepared by mixing solution 2 and solution 4 in a 1:1 ratio.
# • 1. On day 5, aspirate the medium and preincubate the cells with solution 1, solution 6 or solution 8 for 2 h. Note: this preincubation step is performed to enable the compounds to interact with the cellular machinery. • 2. After 2 h, aspirate the medium and immediately incubate the cells with solution 1, solution 5, solution 6, solution 7, solution 8 or solution 9 for 22 h.
# The urea assay is performed on day 6 or day 7 for 24 h and 48 h incubations, respectively.
# • Solutions for the color reagent. […] Note: perform this procedure on ice as this is an exothermic reaction. Wear appropriate protective gear. • ○ Solution B prepared by mixing the thiosemicarbazide solution and the diacetyl monoxime in a 1:1 ratio. • Incubation buffer: HBSS containing 10 mM HEPES, 2 mM glutamine, 10 mM ammonium chloride and 3 mM ornithine, filtered through a 0.2 µm filter and prewarmed at 37°C. • 96-well thermostable plate with aluminum cover slip.
# • 1. Aspirate the culture medium. • 2. Wash the wells twice with 250 µL prewarmed incubation buffer. Aspirate the remaining buffer. • 3. Add 125 µL prewarmed incubation buffer to each well and keep the plate at 37°C for 1 h. • 4.
structure (smiles),measurement,setting,value
"COC(=O)N[C@H](C(=O)N[C@@H](Cc1ccccc1)[C@@H](O)CN(Cc1ccc(-c2ccccn2)cc1)NC(=O)[C@@H](NC(=O)OC)C(C)(C)C)C(C)(C)C [Atazanavir, atazanavir]",DICI 24 h Mean,[1]; 50 µM test compound,0.87
same,DICI 48 h Mean,[1]; 50 µM test compound,0.86
same,DICI 24 h Mean,[1]; 150 µM test compound,1.19
same,DICI 48 h Mean,[1]; 150 µM test compound,0.73
same,"Cmax,total",[2],4.82 µM
same,DICI-based SM obtained with the ‘original’ LOAEL method 24 h,[3],31.12
same,DICI-based SM obtained with the ‘original’ LOAEL method 48 h,[3],31.12
"COc1ccccc1Oc1c(NS(=O)(=O)c2ccc(C(C)(C)C)cc2)nc(-c2ncccn2)nc1OCCO [Bosentan, bosentan]",DICI 24 h Mean,[1]; 50 µM test compound,1.07
same,DICI 48 h Mean,[1]; 50 µM test compound,1.06
same,DICI 24 h Mean,[1]; 100 µM test compound,0.99
same,DICI 48 h Mean,[1]; 100 µM test compound,0.87
same,DICI 24 h Mean,[1]; 200 µM test compound,1.15
same,DICI 48 h Mean,[1]; 200 µM test compound,1.02
same,"Cmax,total",[2],7.39 µM
same,DICI-based SM obtained with the ‘original’ LOAEL method 24 h,[3],27.06
same,DICI-based SM obtained with the ‘original’ LOAEL method 48 h,[3],27.06
"O=C1CC2(CCCC2)CC(=O)N1CCCCN1CCN(c2ncccn2)CC1 [Buspirone, buspirone]",DICI 24 h Mean,[1]; 0.5 µM test compound,0.69
same,DICI 48 h Mean,[1]; 0.5 µM test compound,0.82
same,DICI 24 h Mean,[1]; 1 µM test compound,0.87
same,DICI 48 h Mean,[1]; 1 µM test compound,0.90
same,DICI 24 h Mean,[1]; 5 µM test compound,0.74
same,DICI 48 h Mean,[1]; 5 µM test compound,0.95
same,DICI 24 h Mean,[1]; 10 µM test compound,0.82
same,DICI 48 h Mean,[1]; 10 µM test compound,0.95
same,DICI 24 h Mean,[1]; 25 µM test compound,0.84
same,DICI 48 h Mean,[1]; 25 µM test compound,0.71
same,DICI 24 h Mean,[1]; 50 µM test compound,0.68
same,DICI 48 h Mean,[1]; 50 µM test compound,0.48
same,DICI 24 h Mean,[1]; 150 µM test compound,0.53
same,DICI 48 h Mean,[1]; 150 µM test compound,0.37
same,"Cmax,total",[2],0.01 µM
same,DICI-based SM obtained with the ‘original’ LOAEL method 24 h,[3],5000
same,DICI-based SM obtained with the ‘original’ LOAEL method 48 h,[3],15000
"CN(C)CCCN1c2ccccc2Sc2ccc(Cl)cc21 [Chlorpromazine, chlorpromazine]",DICI 24 h Mean,[1]; 10 µM test compound,0.48
same,"Cmax,total",[2],0.0376 µM
same,DICI-based SM obtained with the ‘original’ LOAEL method 24 h,[3],265.96
"CCN(CC)C(=O)/C(C#N)=C/c1cc(O)c(O)c([N+](=O)[O-])c1 [Entacapone, entacapone]",DICI 24 h Mean,[1]; 10 µM test compound,1.11
same,DICI 48 h Mean,[1]; 10 µM test compound,1.02
same,DICI 24 h Mean,[1]; 30 µM test compound,1.07
same,DICI 48 h Mean,[1]; 30 µM test compound,0.98
same,DICI 24 h Mean,[1]; 130 µM test compound,0.62
same,DICI 48 h Mean,[1]; 130 µM test compound,0.10
same,"Cmax,total",[2],4.34 µM
same,DICI-based SM obtained with the ‘original’ LOAEL method 24 h,[3],29.95
same,DICI-based SM obtained with the ‘original’ LOAEL method 48 h,[3],29.95
"CC[C@H]1OC(=O)[C@H](C)[C@@H](O[C@H]2C[C@@](C)(OC)[C@@H](O)[C@H](C)O2)[C@H](C)[C@@H](O[C@@H]2O[C@H](C)C[C@H](N(C)C)[C@H]2O)[C@](C)(O)C[C@@H](C)C(=O)[C@H](C)[C@@H](O)[C@]1(C)O [Erythromycin, erythromycin]",DICI 24 h Mean,[1]; 50 µM test compound,0.94
same,DICI 24 h Mean,[1]; 100 µM test compound,1.29
same,DICI 24 h Mean,[1]; 200 µM test compound,1.42
same,"Cmax,total",[2],3.97 µM
same,DICI-based SM obtained with the ‘original’ LOAEL method 24 h,[3],50.38
"O=c1[nH]c(=O)n([C@@H]2O[C@H](CO)[C@@H](O)[C@@H]2F)cc1I [Fialuridine, fialuridine]",DICI 24 h Mean,[1]; 10 µM test compound,0.88
same,DICI 48 h Mean,[1]; 10 µM test compound,0.92
same,DICI 24 h Mean,[1]; 20 µM test compound,0.94
same,DICI 48 h Mean,[1]; 20 µM test compound,0.79
same,DICI 24 h Mean,[1]; 30 µM test compound,0.95
same,DICI 48 h Mean,[1]; 30 µM test compound,1.26
same,DICI 24 h Mean,[1]; 50 µM test compound,0.79
same,DICI 48 h Mean,[1]; 50 µM test compound,1.19
same,DICI 24 h Mean,[1]; 100 µM test compound,1.12
same,DICI 48 h Mean,[1]; 100 µM test compound,0.89
same,DICI 24 h Mean,[1]; 300 µM test compound,0.82
same,DICI 48 h Mean,[1]; 300 µM test compound,0.96
same,"Cmax,total",[2],0.64 µM
same,DICI-based SM obtained with the ‘original’ LOAEL method 24 h,[3],468.75
"CN(C)C(=N)N=C(N)N [Metformin, metformin]",DICI 24 h Mean,[1]; 150 µM test compound,1.09
same,DICI 48 h Mean,[1]; 150 µM test compound,1.34
same,DICI 24 h Mean,[1]; 300 µM test compound,1.03
same,DICI 48 h Mean,[1]; 300 µM test compound,1.26
same,DICI 24 h Mean,[1]; 900 µM test compound,1.12
same,DICI 48 h Mean,[1]; 900 µM test compound,1.18
same,"Cmax,total",[2],7.75 µM
"C1CCC(C(CC2CCCCN2)C2CCCCC2)CC1 (centres unmarked) [Perhexiline, perhexiline]",DICI 24 h Mean,[1]; 3 µM test compound,1.00
same,DICI 48 h Mean,[1]; 3 µM test compound,0.80
same,DICI 24 h Mean,[1]; 9 µM test compound,1.03
same,DICI 48 h Mean,[1]; 9 µM test compound,0.98
same,DICI 24 h Mean,[1]; 65 µM test compound,1.10
same,DICI 48 h Mean,[1]; 65 µM test compound,1.02
same,DICI-based SM obtained with the ‘original’ LOAEL method 24 h,[3],30.09
same,DICI-based SM obtained with the ‘original’ LOAEL method 48 h,[3],30.09
"CC(C)c1nc(CN(C)C(=O)N[C@H](C(=O)N[C@@H](Cc2ccccc2)C[C@H](O)[C@H](Cc2ccccc2)NC(=O)OCc2cncs2)C(C)C)cs1 [Ritonavir, ritonavir]","Cmax,total",[2],13.24 µM
"CN(CCOc1ccc(CC2SC(=O)NC2=O)cc1)c1ccccn1 (centres unmarked) [Rosiglitazone, rosiglitazone]",DICI-based SM obtained with the ‘original’ LOAEL method 24 h,[3],56.31
"Clc1ccccc1CN1CCc2sccc2C1 [Ticlopidine, ticlopidine]","Cmax,total",[2],2.898 µM
"CO[C@H]1C[C@H](O[C@H]2[C@H](C)[C@@H](O[C@@H]3O[C@H](C)C[C@H](N(C)C)[C@H]3OC(C)=O)[C@@H](C)C[C@@]3(CO3)C(=O)[C@H](C)[C@@H](OC(C)=O)[C@@H](C)[C@@H](C)OC(=O)[C@@H]2C)O[C@@H](C)[C@@H]1OC(C)=O [Troleandomycin, troleandomycin]",DICI 24 h Mean,[1]; 10 µM test compound,1.00
same,DICI 48 h Mean,[1]; 10 µM test compound,0.83
same,DICI 24 h Mean,[1]; 12.5 µM test compound,1.41
same,DICI 24 h Mean,[1]; 20 µM test compound,1.12
same,DICI 48 h Mean,[1]; 20 µM test compound,0.91
same,DICI 24 h Mean,[1]; 25 µM test compound,1.13
same,DICI 24 h Mean,[1]; 50 µM test compound,0.93
same,DICI 24 h Mean,[1]; 100 µM test compound,0.97
"CC(=O)CC(c1ccccc1)c1c(O)c2ccccc2oc1=O (centres unmarked) [Warfarin, warfarin]",DICI 24 h Mean,[1]; 500 µM test compound,1.31
same,DICI-based SM obtained with the ‘original’ LOAEL method 24 h,[3],71.74
